Reference: US20220372067A1, “3.ALPHA.-HYDROXY-17.BETA.-AMIDE NEUROACTIVE STEROIDS AND COMPOSITIONS THEREOF” (SAGE THERAPEUTICS, INC., priority 2018, published 2022)
pIC50: −log10 of the molar value.

These molecules were tested against GABAA receptor (TBPS binding site), rat brain cortical membranes (assay: [35S]-TBPS binding assay, rat brain cortical membranes in the presence of 5 mM GABA). Settings: inhibition of 3 nM [35S]-TBPS binding.
Procedure: [^35S]-t-Butylbicyclophosphorothionate (TBPS) binding assays using rat brain cortical membranes in the presence of 5 mM GABA has been described (Gee et al, J. Pharmacol. Exp. Ther. 1987, 241, 346-353; Hawkinson et al, Mol. Pharmacol. 1994, 46, 977-985; Lewin, A. H et al., Mol. Pharmacol. 1989, 35, 189-194).
Briefly, cortices are rapidly removed following decapitation of carbon dioxide-anesthetized Sprague-Dawley rats (200-250 g). The cortices are homogenized in 10 volumes of ice-cold 0.32 M sucrose using a glass/teflon homogenizer and centrifuged at 1500×g for 10 min at 4° C. The resultant supernatants are centrifuged at 10,000×g for 20 min at 4° C. to obtain the P2 pellets. The P2 pellets are resuspended in 200 mM NaCl/50 mM Na—K phosphate pH 7.4 buffer and centrifuged at 10,000×g for 10 min at 4° C. This washing procedure is repeated twice and the pellets are resuspended in 10 volumes of buffer. Aliquots ([…]) of the membrane suspensions are incubated with 3 nM [^35S]-TBPS and […] aliquots of test drug dissolved in dimethyl sulfoxide (DMSO) (final 0.5%) in the presence of 5 mM GABA. The incubation is brought to a final volume of 1.0 mL with buffer. Nonspecific binding is determined in the presence of […] and ranged from 15 to 25%. Following a 90 min incubation at room temp, the assays are terminated by filtration through glass fiber filters (Schleicher and Schuell No. 32) using a cell harvester (Brandel) and rinsed three times with ice-cold buffer. Filter bound radioactivity is measured by liquid scintillation spectrometry. Non-linear curve fitting of the overall data for each drug averaged for each concentration is done using Prism (GraphPad). […] The concentration of test compound producing 50% inhibition (IC50) of specific binding and the maximal extent of inhibition (Imax) are determined for the individual experiments with the same model used for the overall data and then the means±SEM.s of the individual experiments are calculated.
Various compounds are or can be screened to determine their potential as modulators of [^35S]-TBPS binding in vitro. These assays are or can be performed in accordance with the above
With `COC[C@@]1(O)CC[C@@]2(C)[C@@H](CC[C@@H]3[C@@H]2CC[C@]2(C)[C@@H](C(=O)Nc4cccc(C)n4)CC[C@@H]32)C1` [Example 5, (3R,5S,8R,9S,10S,13S,14S,17S)-3-hydroxy-3-(methoxymethyl)-10,13-dimethyl-N-(6-methylpyridin-2-yl)hexadecahydro-1H-cyclopenta[a]phenanthrene-17-carboxamide] the pIC50 was > 7.00.
For `CC[C@@]1(O)CC[C@H]2[C@H](CC[C@@H]3[C@@H]2CC[C@]2(C)[C@@H](C(=O)Nc4nc(C)ccc4Cl)CC[C@@H]32)C1` [Example 16, (3R,5R,8R,9R,10S,13S,14S,17S)-N-(3-chloro-6-methylpyridin-2-yl)-3-ethyl-3-hydroxy-13-methylhexadecahydro-1H-cyclopenta[a]phenanthrene-17-carboxamide], the pIC50 was 6.00 to 7.00.
`CCOC[C@@]1(O)CC[C@H]2[C@H](CC[C@@H]3[C@@H]2CC[C@]2(C)[C@@H](C(=O)Nc4ncc(C#N)cc4Cl)CC[C@@H]32)C1` [Example 26] was tested, and the pIC50 was > 7.00.
For `CCOC[C@@]1(O)CC[C@H]2[C@H](CC[C@@H]3[C@@H]2CC[C@]2(C)[C@@H](C(=O)Nc4cccc(C)n4)CC[C@@H]32)C1` [Example 4, (3R,5R,8R,9R,10S,13S,14S,17S)-3-(ethoxymethyl)-3-hydroxy-13-methyl-N-(6-methylpyridin-2-yl)hexadecahydro-1H-cyclopenta[a]phenanthrene-17-carboxamide], the pIC50 was > 7.00.
In the case of `CCOC[C@@]1(O)CC[C@H]2[C@H](CC[C@@H]3[C@@H]2CC[C@]2(C)[C@@H](C(=O)Nc4ccnc(C)n4)CC[C@@H]32)C1` [Example 63], the pIC50 was > 7.00.
In the case of `COC[C@@]1(O)CC[C@H]2[C@H](CC[C@@H]3[C@@H]2CC[C@]2(C)[C@@H](C(=O)Nc4cccc(-n5ccc(C)n5)n4)CC[C@@H]32)C1` [Example 45], the pIC50 was > 7.00.
With `CCOC[C@@]1(O)CC[C@H]2[C@H](CC[C@@H]3[C@@H]2CC[C@]2(C)[C@@H](C(=O)Nc4ccc(C#N)nc4C)CC[C@@H]32)C1` [Example 27] the pIC50 was > 7.00.
In the case of `CCOC[C@@]1(O)CC[C@H]2[C@H](CC[C@@H]3[C@@H]2CC[C@]2(C)[C@@H](C(=O)Nc4ccncc4)CC[C@@H]32)C1` [Example 1, (3R,5R,8R,9R,10S,13S,14S,17S)-3-(ethoxymethyl)-3-hydroxy-13-methyl-N-(pyridin-4-yl)hexadecahydro-1H-cyclopenta[a]phenanthrene-17-carboxamide], the pIC50 was > 7.00.
`COC[C@@]1(O)CC[C@H]2[C@H](CC[C@@H]3[C@@H]2CC[C@]2(C)[C@@H](C(=O)Nc4ccc(-n5nccc5C)nc4C)CC[C@@H]32)C1` [Example 47] was tested, and the pIC50 was > 7.00.
For `CCOC[C@@]1(O)CC[C@H]2[C@H](CC[C@@H]3[C@@H]2CC[C@]2(C)[C@@H](C(=O)Nc4cncc(C#N)n4)CC[C@@H]32)C1` [Example 58], the pIC50 was > 7.00.
In the case of `COC[C@@]1(O)CC[C@H]2[C@H](CC[C@@H]3[C@@H]2CC[C@]2(C)[C@@H](C(=O)Nc4ccc(C#N)nc4Cl)CC[C@@H]32)C1` [Example 42], the pIC50 was > 7.00.
For `CCOC[C@@]1(O)CC[C@@]2(CC)[C@H](CC[C@H]3[C@@H]4CC[C@H](C(=O)Nc5cc(C#N)n(C)n5)[C@@]4(C)CC[C@@H]32)C1` [Example 36], the pIC50 was > 7.00.
With `CCOC[C@@]1(O)CC[C@@]2(CC)[C@H](CC[C@H]3[C@@H]4CC[C@H](C(=O)Nc5cc(C)nn5C)[C@@]4(C)CC[C@@H]32)C1` [Example 8, (3R,5R,8S,9S,10S,13S,14S,17S)-N-(1,3-dimethyl-1H-pyrazol-5-yl)-3-(ethoxymethyl)-10-ethyl-3-hydroxy-13-methylhexadecahydro-1H-cyclopenta[a]phenanthrene-17-carboxamide] the pIC50 was > 7.00.
For `CCOC[C@@]1(O)CC[C@H]2[C@H](CC[C@@H]3[C@@H]2CC[C@]2(C)[C@@H](C(=O)Nc4nc(C#N)ccc4C)CC[C@@H]32)C1` [Example 61], the pIC50 was 6.00 to 7.00.
For `COC[C@@]1(O)CC[C@H]2[C@H](CC[C@@H]3[C@@H]2CC[C@]2(C)[C@@H](C(=O)Nc4ccc(F)cn4)CC[C@@H]32)C1` [Example 10, (3R,5R,8R,9R,10S,13S,14S,17S)-N-(5-fluoropyridin-2-yl)-3-hydroxy-3-(methoxymethyl)-13-methylhexadecahydro-1H-cyclopenta[a]phenanthrene-17-carboxamide], the pIC50 was > 7.00.
`CC[C@@]1(O)CC[C@@]2(C)[C@H](CC[C@@H]3[C@@H]2CC[C@]2(C)[C@@H](C(=O)Nc4nc(C)ccc4Cl)CC[C@@H]32)C1` [Example 15, (3R,5R,8R,9S,10S,13S,14S,17S)-N-(3-chloro-6-methylpyridin-2-yl)-3-ethyl-3-hydroxy-10,13-dimethylhexadecahydro-1H-cyclopenta[a]phenanthrene-17-carboxamide] showed a pIC50 of 6.00 to 7.00.
`Cc1nc2ccccn2c1NC(=O)[C@H]1CC[C@H]2[C@@H]3CC[C@@H]4C[C@](C)(O)CC[C@@H]4[C@H]3CC[C@]12C` [Example 6, (3R,5R,8R,9R,10S,13S,14S,17S)-3-hydroxy-3,13-dimethyl-N-(2-methylimidazo[1,2-a]pyridin-3-yl)hexadecahydro-1H-cyclopenta[a]phenanthrene-17-carboxamide] gave a pIC50 of 6.00 to 7.00.
For `CCOC[C@@]1(O)CC[C@H]2[C@H](CC[C@@H]3[C@@H]2CC[C@]2(C)[C@@H](C(=O)Nc4cc(C)nn4C)CC[C@@H]32)C1` [Example 30], the pIC50 was > 7.00.
`COC[C@@]1(O)CC[C@H]2[C@H](CC[C@@H]3[C@@H]2CC[C@]2(C)[C@@H](C(=O)Nc4ccc(C)nc4)CC[C@@H]32)C1` [Example 40] was tested, and the pIC50 was > 7.00.
For `C[C@]12CC[C@H]3[C@@H](CC[C@@H]4C[C@H](O)CC[C@@H]43)[C@@H]1CC[C@@H]2C(=O)Nc1cnc(C#N)cn1` [Example 14, (3R,5R,8R,9R,10S,13S,14S,17S)-N-(5-cyanopyrazin-2-yl)-3-hydroxy-13-methylhexadecahydro-1H-cyclopenta[a]phenanthrene-17-carboxamide], the pIC50 was > 7.00.
With `CCOC[C@@]1(O)CC[C@H]2[C@H](CC[C@@H]3[C@@H]2CC[C@]2(C)[C@@H](C(=O)Nc4cnc(C#N)cn4)CC[C@@H]32)C1` [Example 28] the pIC50 was > 7.00.
With `COC[C@@]1(O)CC[C@H]2[C@H](CC[C@@H]3[C@@H]2CC[C@]2(C)[C@@H](C(=O)Nc4cccnc4C)CC[C@@H]32)C1` [Example 51] the pIC50 was > 7.00.
For `CCOC[C@@]1(O)CC[C@H]2[C@H](CC[C@@H]3[C@@H]2CC[C@]2(C)[C@@H](C(=O)Nc4c(C#N)cnn4C)CC[C@@H]32)C1` [Example 57], the pIC50 was < 6.00.
For `CCOC[C@@]1(O)CC[C@H]2[C@H](CC[C@@H]3[C@@H]2CC[C@]2(C)[C@@H](C(=O)Nc4ccc(C#N)nn4)CC[C@@H]32)C1` [Example 29], the pIC50 was > 7.00.
Work on `COC[C@@]1(O)CC[C@H]2[C@H](CC[C@@H]3[C@@H]2CC[C@]2(C)[C@@H](C(=O)Nc4ncccc4Cl)CC[C@@H]32)C1` [Example 39] yielded a pIC50 of 6.00 to 7.00.
In the case of `COC[C@@]1(O)CC[C@H]2[C@H](CC[C@@H]3[C@@H]2CC[C@]2(C)[C@@H](C(=O)Nc4ccc(-c5ncc(F)cn5)nc4C)CC[C@@H]32)C1` [Example 48], the pIC50 was > 7.00.
In the case of `CCOC[C@@]1(O)CC[C@H]2[C@H](CC[C@@H]3[C@@H]2CC[C@]2(C)[C@@H](C(=O)Nc4cccc(C#N)n4)CC[C@@H]32)C1` [Example 60], the pIC50 was > 7.00.
Molecule `CCOC[C@@]1(O)CC[C@H]2[C@H](CC[C@@H]3[C@@H]2CC[C@]2(C)[C@@H](C(=O)Nc4nc(C)ccc4C)CC[C@@H]32)C1` [Example 59] has a pIC50 of 6.00 to 7.00.
`CCOC[C@@]1(O)CC[C@H]2[C@H](CC[C@@H]3[C@@H]2CC[C@]2(C)[C@@H](C(=O)Nc4ccccn4)CC[C@@H]32)C1` [Example 20] was tested, and the pIC50 was > 7.00.
For `CCOC[C@@]1(O)CC[C@H]2[C@H](CC[C@@H]3[C@@H]2CC[C@]2(C)[C@@H](C(=O)Nc4cnc(C)cn4)CC[C@@H]32)C1` [Example 25], the pIC50 was > 7.00.
In the case of `COC[C@@]1(O)CC[C@H]2[C@H](CC[C@@H]3[C@@H]2CC[C@]2(C)[C@@H](C(=O)Nc4ccc(C)nc4Cl)CC[C@@H]32)C1` [Example 43], the pIC50 was > 7.00.
